Source: ChEMBL document CHEMBL5329166, “Discovery of imeglimin-inspired novel 1,3,5-triazine derivatives as antidiabetic agents in streptozotocin-induced diabetes in Wistar rats via inhibition of DPP-4” (RSC Med Chem, 2023)
Active and inactive are the calls of the source. The calls are words filed in the database; no cut-off is given here.

How the values were obtained:
[1] = Acute toxicity in rat assessed as change in animal skin and fur at 2000 mg/kg, po measured after 30 mins to 4 hrs; type: organism-based; conditions: in vivo, time 0.5-4 hrs
Rattus norvegicus [2] = assay: Antioxidant activity in high fat diet/STZ induced diabetic Wistar rat model assessed as repair of pancreatic epithelial cells with normal islets at 30 mg/kg, IG pretreated with STZ for 21 days followed by compound treatment once daily for 21 days by H and E staining based microscopic analysis; type: functional, organism-based; conditions: time 21.0 day
Rattus norvegicus [3] = assay: Antioxidant activity in high fat diet/STZ induced diabetic Wistar rat model assessed as healing of hepatocyte cytoplasm at 3 to 10 mg/kg, IG pretreated with STZ for 21 days followed by compound treatment once daily for 21 days by H and E staining based microscopic analysis; type: functional, organism-based; conditions: dose 3-10 mg/kg, time 21.0 day
Rattus norvegicus [4] = assay: Antidiabetic activity in high fat diet/STZ induced diabetic Wistar rat model assessed as increase in fasting serum insulin at 3 to 30 mg/kg, IG pretreated with STZ for 21 days followed by compound treatment once daily for 21 days by chemiluminescence immunoassay; type: functional, organism-based; conditions: dose 3-30 mg/kg, time 21.0 day
Rattus norvegicus [5] = assay: Antioxidant activity in IG dosed high fat diet/STZ induced diabetic Wistar rat model assessed as reversal of GSH reduction in liver pretreated with STZ for 21 days followed by compound treatment once daily for 21 days by spectrophotometric analysis; type: functional, organism-based; conditions: dose 3-30 mg/kg, time 21.0 day
Rattus norvegicus [6] = assay: Antioxidant activity in high fat diet/STZ induced diabetic Wistar rat model assessed as recovery of pancreatic epithelial cell damage and acini architecture at 10 mg/kg, IG pretreated with STZ for 21 days followed by compound treatment once daily for 21 days by H and E staining based microscopic analysis; type: functional, organism-based; conditions: time 21.0 day
Rattus norvegicus [7] = assay: Antioxidant activity in high fat diet/STZ induced diabetic Wistar rat model assessed as healing of hepatocyte central veins at 3 to 10 mg/kg, IG pretreated with STZ for 21 days followed by compound treatment once daily for 21 days by H and E staining based microscopic analysis; type: functional, organism-based; conditions: dose 3-10 mg/kg, time 21.0 day
[8] = Acute toxicity in rat assessed as change in mucosal membranes at 300 to 1000 mg/kg, po measured after 6 hrs; type: organism-based; conditions: in vivo, dose 300-1000 mg/kg
[9] = Acute toxicity in rat assessed as change in salivation at 2000 mg/kg, po measured after 30 mins to 4 hrs; type: organism-based; conditions: in vivo, time 0.5-4 hrs
Rattus norvegicus [10] = assay: Antioxidant activity in high fat diet/STZ induced diabetic Wistar rat model assessed as repair of pancreatic epithelial cells with reduced fibrosis at 30 mg/kg, IG pretreated with STZ for 21 days followed by compound treatment once daily for 21 days by H and E staining based microscopic analysis; type: functional, organism-based; conditions: time 21.0 day
[11] = Acute toxicity in rat assessed as change in salivation at 300 to 1000 mg/kg, po measured after 6 hrs; type: organism-based; conditions: in vivo, dose 300-1000 mg/kg
Rattus norvegicus [12] = assay: Antioxidant activity in high fat diet/STZ induced diabetic Wistar rat model assessed as healing of hepatocyte nucleus at 3 mg/kg, IG pretreated with STZ for 21 days followed by compound treatment once daily for 21 days by H and E staining based microscopic analysis; type: functional, organism-based; conditions: time 21.0 day
Rattus norvegicus [13] = assay: Antioxidant activity in high fat diet/STZ induced diabetic Wistar rat model assessed as repair of pancreatic epithelial cells with reduced inflammation at 30 mg/kg, IG pretreated with STZ for 21 days followed by compound treatment once daily for 21 days by H and E staining based microscopic analysis; type: functional, organism-based; conditions: time 21.0 day
[14] = Acute toxicity in rat assessed as change in animal skin at 300 to 1000 mg/kg, po measured after 6 hrs; type: organism-based; conditions: in vivo, dose 300-1000 mg/kg
Rattus norvegicus [15] = assay: Antioxidant activity in IG dosed high fat diet/STZ induced diabetic Wistar rat model assessed as reversal of SOD reduction in kidney pretreated with STZ for 21 days followed by compound treatment once daily for 21 days by spectrophotometric analysis; type: functional, organism-based; conditions: dose 3-30 mg/kg, time 21.0 day
Rattus norvegicus [16] = assay: Antioxidant activity in high fat diet/STZ induced diabetic Wistar rat model assessed as reduction in mesangial cellularity and matrix at 10 to 30 mg/kg, IG pretreated with STZ for 21 days followed by compound treatment once daily for 21 days by H and E staining based microscopic analysis; type: functional, organism-based; conditions: dose 10-30 mg/kg, time 21.0 day
[17] = Acute toxicity in po dosed rat measured after 30 mins to 4 hrs; type: organism-based; conditions: in vivo, time 0.5-4 hrs
[18] = Acute toxicity in rat assessed as change in animal eyes at 300 to 1000 mg/kg, po measured after 6 hrs; type: organism-based; conditions: in vivo, dose 300-1000 mg/kg
Rattus norvegicus [19] = assay: Antioxidant activity in high fat diet/STZ induced diabetic Wistar rat model assessed as absence of feathery hepatocyte deterioration at 30 mg/kg, IG pretreated with STZ for 21 days followed by compound treatment once daily for 21 days by H and E staining based microscopic analysis; type: functional, organism-based; conditions: time 21.0 day
[20] = Acute toxicity in rat assessed as diarrhoea at 300 to 1000 mg/kg, po measured after 6 hrs; type: organism-based; conditions: in vivo, dose 300-1000 mg/kg
Rattus norvegicus [21] = assay: Antioxidant activity in IG dosed high fat diet/STZ induced diabetic Wistar rat model assessed as reversal of CAT reduction in liver pretreated with STZ for 21 days followed by compound treatment once daily for 21 days by spectrophotometric analysis; type: functional, organism-based; conditions: dose 3-30 mg/kg, time 21.0 day
Rattus norvegicus [22] = assay: Antidiabetic activity in high fat diet/STZ induced diabetic Wistar rat model assessed as reduction in VLDL level at 3 to 30 mg/kg, IG pretreated with STZ for 21 days followed by compound treatment once daily for 21 days by spectrophotometric analysis; type: functional, organism-based; conditions: dose 3-30 mg/kg, time 21.0 day
Rattus norvegicus [23] = assay: Antioxidant activity in IG dosed high fat diet/STZ induced diabetic Wistar rat model assessed as reversal of GPx reduction in kidney pretreated with STZ for 21 days followed by compound treatment once daily for 21 days by spectrophotometric analysis; type: functional, organism-based; conditions: dose 3-30 mg/kg, time 21.0 day
[24] = Acute toxicity in rat assessed as diarrhoea at 2000 mg/kg, po measured after 30 mins to 4 hrs; type: organism-based; conditions: in vivo, time 0.5-4 hrs
Rattus norvegicus [25] = assay: Antioxidant activity in IG dosed high fat diet/STZ induced diabetic Wistar rat model assessed as reversal of GSH reduction in kidney pretreated with STZ for 21 days followed by compound treatment once daily for 21 days by spectrophotometric analysis; type: functional, organism-based; conditions: dose 3-30 mg/kg, time 21.0 day

For Nc1nc(NC2=NC(c3ccccc3)=CC(c3cccc([N+](=O)[O-])c3)O2)nc(N2CCOCC2)n1 (stereo not given), the Activity [1] was “Non-Toxic”, the Activity (Rattus norvegicus [2]) was “Active” and the Activity (Rattus norvegicus [3]) was “Active”. The Activity (Rattus norvegicus [4]) was “Active”, the Activity (Rattus norvegicus [5]) was “Dose-Dependent Effect” and the Activity (Rattus norvegicus [6]) was “Active”. The Activity (Rattus norvegicus [7]) was “Active”, the Activity [8] was “Non-Toxic” and the Activity [9] was “Non-Toxic”. For the same molecule, the Activity (Rattus norvegicus [10]) was “Active”, the Activity [11] was “Non-Toxic” and the Activity (Rattus norvegicus [12]) was “Active”. The Activity (Rattus norvegicus [13]) was “Active”, the Activity [14] was “Non-Toxic” and the Activity (Rattus norvegicus [15]) was “Dose-Dependent Effect”. The Activity (Rattus norvegicus [16]) was “Active”, the LD50 [17] was 2000 mg/kg and the Activity [18] was “Non-Toxic”. The Activity (Rattus norvegicus [19]) was “Active”, the Activity [20] was “Non-Toxic” and the Activity (Rattus norvegicus [21]) was “Dose-Dependent Effect”. For the same molecule, the Activity (Rattus norvegicus [22]) was “Active”, the Activity (Rattus norvegicus [23]) was “Dose-Dependent Effect” and the Activity [24] was “Non-Toxic”. For the same molecule, the Activity (Rattus norvegicus [25]) was “Dose-Dependent Effect”.
